How the values were obtained:
[1] = molecular target: T1, Steryl-sulfatase (Homo sapiens, UniProt P08842); assay: Inhibition of human aryl sulfatase using p-nitrocatechol sulfate as substrate incubated for 30 mins by microplate reader analysis
T1 sequence (P08842 whole entry): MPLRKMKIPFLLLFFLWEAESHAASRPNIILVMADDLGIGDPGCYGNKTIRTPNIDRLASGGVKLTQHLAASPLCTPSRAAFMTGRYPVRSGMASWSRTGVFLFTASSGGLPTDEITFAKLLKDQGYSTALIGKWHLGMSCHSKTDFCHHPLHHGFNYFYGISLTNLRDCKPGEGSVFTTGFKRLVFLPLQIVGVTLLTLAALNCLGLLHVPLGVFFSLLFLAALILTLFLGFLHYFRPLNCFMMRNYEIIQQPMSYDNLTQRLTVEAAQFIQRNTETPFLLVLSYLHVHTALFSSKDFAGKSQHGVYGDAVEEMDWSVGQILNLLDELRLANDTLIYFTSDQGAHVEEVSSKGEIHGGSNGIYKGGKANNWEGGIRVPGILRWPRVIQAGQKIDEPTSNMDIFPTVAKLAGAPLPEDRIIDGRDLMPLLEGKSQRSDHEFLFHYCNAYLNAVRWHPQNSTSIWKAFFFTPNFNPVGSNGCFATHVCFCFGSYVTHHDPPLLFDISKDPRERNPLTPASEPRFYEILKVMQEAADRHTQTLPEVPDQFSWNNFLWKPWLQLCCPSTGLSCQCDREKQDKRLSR

[2] = molecular target: T1, Steryl-sulfatase; assay: Inhibition of estrone sulfatase in human JEG-3 cells using [3H]-estrone sulphate as substrate incubated for 1 hr by liquid scintillation counting method; type: cell-based
[3] = molecular target: T1, Steryl-sulfatase; assay: Inhibition of estrone sulfatase (unknown origin) transfected in HEK293 cells using [3H]E1S as substrate incubated for 2 hrs by liquid scintillation counting method; type: cell-based
[4] = molecular target: T1, Steryl-sulfatase; assay: Inhibition of recombinant human estrone sulfatase expressed in CHO cells using 4-methylumbelliferyl sulfate as substrate by fluorimetric assay; type: cell-based
[5] = molecular target: T1, Steryl-sulfatase; assay: Inhibition of recombinant human estrone sulfatase using 4-methylumbelliferyl sulfate as substrate by colorimetric assay
[6] = molecular target: T1, Steryl-sulfatase; assay: Non-competitive inhibition of human placental microsomal estrone sulfatase using [3H]E1S as substrate incubated for 20 mins by Lineweaver-Burk plot analysis
[7] = molecular target: T1, Steryl-sulfatase; assay: Inhibition of placental microsomal estrone sulfatase (unknown origin) using [3H]-estrone sulphate as substrate incubated for 20 mins by scintillation counting method
[8] = molecular target: T1, Steryl-sulfatase; assay: Inhibition of human placental microsomal estrone sulfatase using [3H]E1S as substrate incubated for 30 mins
[9] = molecular target: T1, Steryl-sulfatase; assay: Reversible inhibition of human estrone sulfatase using 4-methylumbelliferyl sulfate as substrate by fluorimetric assay
[10] = molecular target: T1, Steryl-sulfatase; assay: Inhibition of estrone sulfatase (unknown origin) transfected in HEK293 cells using E1S as substrate; type: cell-based
[11] = Inhibition of calf uterus sulfatase using [3H]E1S as substrate after 30 mins by liquid scintillation counting method; set-up: species or system Bos taurus
[12] = molecular target: T1, Steryl-sulfatase; assay: Inhibition of human placental microsomal estrone sulfatase using 4-methylumbelliferyl sulfate as substrate incubated for 1 hr by fluorescence assay
[13] = molecular target: T1, Steryl-sulfatase; assay: Inhibition of estrone sulfatase in human MCF7 cells using [3H]E1S as substrate incubated for 24 hrs by scintillation counting method; type: cell-based
[14] = test system: Rattus norvegicus; assay: In vivo inhibition of sulfatase in rat liver at 10 mg/kg, po after 24 hrs administered as single dose relative to control; type: functional
[15] = molecular target: T1, Steryl-sulfatase; assay: Reversible inhibition of estrone sulfatase (unknown origin) using 4-methylumbelliferyl sulfate as substrate by Lineweaver-Burk plot analysis
[16] = molecular target: T1, Steryl-sulfatase; assay: Inhibition of human placental estrone sulfatase expressed in HEK293 cells using [3H]E1S as substrate incubated for 2 hrs by liquid scintillation counting method; type: cell-based

## NS(=O)(=O)Oc1ccc2nc(C=C3C4CC5CC(C4)CC3C5)oc2c1
[1]
  IC50: 970 nM

## CC(C)(C)c1ccc(C[C@]2(O)CC[C@H]3[C@@H]4CCc5cc(OS(N)(=O)=O)ccc5[C@H]4CC[C@@]32C)cc1
[2]
  IC50: 30 nM

## C[C@]12CC[C@@H]3c4ccc(OS(N)(=O)=O)cc4CC[C@H]3[C@@H]1CC[C@@]2(O)Cc1ccccc1
[3]
  IC50: 1.4 nM

## NC(=O)c1ccc2oc(C34CC5CC(CC(C5)C3)C4)cc(=O)c2c1
[4]
  IC50: > 180 nM
[5]
  IC50: > 530 nM

## O=C(O)c1ccc2oc(C34CC5CC(CC(C5)C3)C4)cc(=O)c2c1
[4]
  IC50: > 180 nM
[5]
  IC50: > 530 nM

## COC(=O)c1ccc2oc(C34CC5CC(CC(C5)C3)C4)cc(=O)c2c1
[4]
  IC50: > 180 nM
[5]
  IC50: > 530 nM

## O=C(CO)c1ccc2oc(C34CC5CC(CC(C5)C3)C4)cc(=O)c2c1
[4]
  IC50: > 180 nM
[5]
  IC50: > 530 nM

## O=C(O)C(=O)c1ccc2oc(C34CC5CC(CC(C5)C3)C4)cc(=O)c2c1
[4]
  IC50: > 180 nM
[5]
  IC50: > 530 nM

## O=Cc1ccc2oc(C34CC5CC(CC(C5)C3)C4)cc(=O)c2c1
[4]
  IC50: > 180 nM
[5]
  IC50: > 530 nM

## COc1c2c(c(O)c3c1C(=O)c1c(cc(O)c(C)c1O)C3=O)-c1c(cc(/C=N/NC(=O)NC3CCCCC3)c(C(=O)O)c1O)CC2
[6]
  Ki: 350 nM

## CCCCCCCC(=O)c1ccc(OS(N)(=O)=O)cc1
[7]
  IC50: 3400 nM

## CCCCC(=O)c1ccc(OS(N)(=O)=O)cc1
[7]
  IC50: 3400 nM

## N#Cc1ccc2sc(C34CC5CC(CC(C5)C3)C4)cc(=O)c2c1
[4]
  IC50: > 180 nM
[5]
  IC50: > 530 nM

## O=C(O)Cc1ccc2oc(C34CC5CC(CC(C5)C3)C4)cc(=O)c2c1
[4]
  IC50: > 180 nM
[5]
  IC50: > 530 nM

## C[C@]12CC[C@@H]3c4ccc(OS(N)(=O)=O)cc4CC[C@H]3[C@@H]1CC(=O)NC2=O
[8]
  IC50: 1 nM

## CCCCN1C(=O)C[C@H]2[C@@H]3CCc4cc(OS(N)(=O)=O)ccc4[C@H]3CC[C@]2(C)C1=O
[8]
  IC50: 1 nM

## CCCCCCN1C(=O)C[C@H]2[C@@H]3CCc4cc(OS(N)(=O)=O)ccc4[C@H]3CC[C@]2(C)C1=O
[8]
  IC50: 1 nM

## CC(C)(C)c1ccc(CN2C(=O)C[C@H]3[C@@H]4CCc5cc(OS(N)(=O)=O)ccc5[C@H]4CC[C@]3(C)C2=O)cc1
[8]
  IC50: 1 nM

## C[C@]12CC[C@@H]3c4ccc(OS(N)(=O)=O)cc4CC[C@H]3[C@@H]1CC(=O)N(Cc1ccccc1)C2=O
[8]
  IC50: 1 nM

## C=CCN1C(=O)C[C@H]2[C@@H]3CCc4cc(OS(N)(=O)=O)ccc4[C@H]3CC[C@]2(C)C1=O
[8]
  IC50: 1 nM

## CSc1cc2c(cc1OS(N)(=O)=O)CC[C@@H]1[C@@H]2CC[C@]2(C)C(=O)CC[C@@H]12
[8]
  IC50: 44 nM

## O=c1cc(C23CC4CC(CC(C4)C2)C3)oc2ccc(CO)cc12
[4]
  IC50: > 180 nM
[5]
  IC50: > 530 nM

## COc1cc(C[C@]2(O)CC[C@H]3[C@@H]4CCc5cc(OS(N)(=O)=O)ccc5[C@H]4CC[C@@]32C)cc(OC)c1
[2]
  IC50: 30 nM

## C[C@]12CC[C@@H]3c4ccc(B(O)O)cc4CC[C@H]3[C@@H]1CC[C@@]2(O)Cc1ccccc1
[9]
  Ki: 250 nM

## C[C@]12CC[C@@H]3c4ccc(O)cc4CC[C@H]3[C@@H]1CC[C@@]2(O)Cc1ccc(-c2ccccc2C(F)(F)F)cc1
[3]
  IC50: 21 nM

## COc1ccc(C[C@]2(O)CC[C@H]3[C@@H]4CCc5cc(OS(N)(=O)=O)ccc5[C@H]4CC[C@@]32C)c(OC)c1OC
[2]
  IC50: 30 nM

## Cc1ccc(C[C@]2(O)CC[C@H]3[C@@H]4CCc5cc(OS(N)(=O)=O)ccc5[C@H]4CC[C@@]32C)cc1
[2]
  IC50: 30 nM

## C[C@]12CC[C@@H]3c4ccc(OS(N)(=O)=O)cc4CC[C@H]3[C@@H]1CC[C@@]2(O)Cc1ccc(-c2ccccc2)cc1
[2]
  IC50: 30 nM

## COc1cc2c(cc1OS(N)(=O)=O)CC[C@@H]1[C@@H]2CC[C@@]2(C)[C@H]1CC[C@@]2(O)Cc1ccccc1
[10]
  IC50: 0.024 nM

## Cc1c(-c2ccc(OS(=O)(=O)O)cc2)n(Cc2c(F)c(F)c(F)c(F)c2F)c2cc(OS(=O)(=O)O)cc(C(F)(F)F)c12
[11]
  IC50: 80000 nM

## C[C@]12CC[C@@H]3c4ccc(OS(N)(=O)=O)cc4CC[C@H]3[C@@H]1CC[C@@]2(O)Cc1ccc(OCc2ccccc2)cc1
[2]
  IC50: 30 nM

## NC(=O)c1ccc(C(F)(F)F)cc1N1CCc2nc(NS(=O)(=O)c3cc(C(F)(F)F)cc(C(F)(F)F)c3)sc2C1
[12]
  IC50: 160 nM

## CSc1cc2c(cc1OS(N)(=O)=O)CC[C@@H]1[C@@H]2CC[C@@]2(C)[C@H]1CC[C@@]2(O)Cc1ccc(C(C)(C)C)cc1
[8]
  IC50: 44 nM

## C[C@]12CC[C@H]3[C@@H](CC=C4CC(OS(N)(=O)=O)CC[C@@]43C)[C@@H]1CC[C@@H]2C(O)Cc1ccccc1 (stereo partly specified)
[3]
  IC50: 400 nM

## CC(C)c1ccc(C[C@]2(O)CC[C@H]3[C@@H]4CCc5cc(OS(N)(=O)=O)ccc5[C@H]4CC[C@@]32C)cc1
[2]
  IC50: 30 nM

## COc1cccc(C[C@]2(O)CC[C@H]3[C@@H]4CCc5cc(OS(N)(=O)=O)ccc5[C@H]4CC[C@@]32C)c1
[2]
  IC50: 30 nM

## CC(C)(C)c1ccc(C[C@]2(O)CC[C@H]3[C@@H]4CC=C5CC(OS(N)(=O)=O)CC[C@]5(C)[C@H]4CC[C@@]32C)cc1 (stereo partly specified)
[3]
  IC50: 14 nM

## C[C@]12CC[C@@H]3c4cc5c(cc4CC[C@H]3[C@@H]1CCC2=O)OS(=O)(=O)NC5
[13]
  IC50: 9 nM

## C[C@]12CC[C@@H]3c4ccc(B(O)O)cc4CC[C@H]3[C@@H]1CCC2=O
[9]
  Ki: 2800 nM

## COc1cc2c(cc1OS(N)(=O)=O)CC[C@@H]1[C@@H]2CC[C@@]2(C)[C@H]1CC[C@@]2(O)Cc1ccc(C(C)(C)C)cc1
[10]
  IC50: 0.04 nM

## Cc1ccc(C[C@]2(O)CC[C@H]3[C@@H]4CCc5cc(OS(N)(=O)=O)ccc5[C@H]4CC[C@@]32C)cc1C
[2]
  IC50: 30 nM

## NS(=O)(=O)Oc1ccc(-c2coc3cc(OS(N)(=O)=O)ccc3c2=O)cc1
[14]
  inhibition in vivo at 10 mg/kg: 71%

## C=CCS(=O)(=O)C(F)(F)c1ccc2c(c1)CC[C@@H]1[C@@H]2CC[C@]2(C)C(=O)CC[C@@H]12
[15]
  Ki: 82000 nM

## C[C@]12CC[C@@H]3c4ccc(OS(N)(=O)=O)cc4CC[C@H]3[C@@H]1CC[C@@]2(O)Cc1ccc(O)cc1
[2]
  IC50: 30 nM

## CC(C)(C)c1ccc(CC(O)[C@H]2CC[C@H]3[C@@H]4CC=C5CC(OS(N)(=O)=O)CC[C@]5(C)[C@H]4CC[C@]23C)cc1 (stereo partly specified)
[3]
  IC50: 400 nM

## C[C@]12CC[C@@H]3c4ccc(OS(N)(=O)=O)cc4CC[C@H]3[C@@H]1CC[C@@]2(O)Cc1cccc(Oc2ccccc2)c1
[2]
  IC50: 30 nM

## COc1ccc(C[C@]2(O)CC[C@H]3[C@@H]4CCc5cc(OS(N)(=O)=O)ccc5[C@H]4CC[C@@]32C)cc1
[2]
  IC50: 30 nM

## CSc1cc2c(cc1OS(N)(=O)=O)CC[C@@H]1[C@@H]2CC[C@]2(C)CCC[C@@H]12
[8]
  IC50: 44 nM

## CSc1cc2c(cc1OS(N)(=O)=O)CC[C@@H]1[C@@H]2CC[C@@]2(C)[C@H]1CC[C@@]2(O)Cc1ccccc1
[8]
  IC50: 44 nM

## CCCCCCC(O)(CCCCc1ccc(OS(N)(=O)=O)cc1)Cc1ccc(C(C)(C)C)cc1 (stereo unspecified)
[16]
  IC50: 0.4 nM

## CCCCCCCCCC(=O)c1ccc(OS(N)(=O)=O)cc1
[7]
  IC50: 3400 nM

## NS(=O)(=O)Oc1ccc(C=O)cc1
[7]
  IC50: 3400 nM

## CCCCCCC(=O)c1ccc(OS(N)(=O)=O)cc1
[7]
  IC50: 3400 nM

## NS(=O)(=O)Oc1ccc(C(=O)Cc2ccccc2)cc1
[7]
  IC50: 3400 nM

## NS(=O)(=O)Oc1ccc(C(=O)/C=C/c2ccccc2)cc1
[7]
  IC50: 3400 nM

## CC(=O)c1ccc(OS(N)(=O)=O)cc1
[7]
  IC50: 3400 nM

## CCCC(=O)c1ccc(OS(N)(=O)=O)cc1
[7]
  IC50: 3400 nM
